The values that follow come from patent US6767741B1, “Metal binding compounds and their use in cell culture medium compositions” (Invitrogen Corporation, priority 1999, dated 2004).

Common to all, as to type: cell-based
What all share (conditions): third passage, control = 5 μg/mL human holo-transferrin, duplicate cultures

For one assay, the system named is CHO cells. Description: Growth of CHO cells in transferrin-free CD CHO medium with metal binding compounds. As to the method: The ability of metal binding compounds to support cellular growth in the absence of transferrin was evaluated using CHO cells maintained in CD CHO medium (Life Technologies, Rockville, Md., the formulation of which is described in WO 98/08934). Stock cultures containing 5 μg/mL human holo-transferrin were prepared in CD CHO medium. For metal binding compound evaluation, CHO cells were established in 125 mL shaker flasks at an initial viable seeding density of 1×10^5 cells/mL in a final volume of 20 mL. All cultures were maintained at 37° C. in humidified air containing 8% CO2. To eliminate transferrin carry-over effects, cells were subcultured at 4 day intervals for a total of three passages. Positive control cultures contained 5 μg/mL human holo-transferrin while negative control cultures were established in the absence of either transferrin or metal binding compound. Metal binding compound stocks were prepared at 0.1M-0.2M in ddH2O and solubilized when necessary using 5N NaOH or HCl. Iron complexes were established using 0.2M metal binding compound and iron stocks mixed 1:1 (v/v) and incubated for 5-10 minutes at 22° C. All solutions containing metal binding compounds were filter sterilized using a 0.22 μm Millex-GV filter prior to addition to transferrin and serum-free media.
(§1) In most cases, metal binding compounds were evaluated either alone or in combination with ferric chloride or ferrous sulfate at 25 μM, 50 μM and 100 μM. Values in the table represent the mean percentage of control growth for duplicate cultures determined at the third passage.
The ability of various metal binding compounds to substitute for transferrin in the culture of CHO cells was determined. When added to the medium formulation un-complexed, the metal binding compound is listed alone, when added as a complex with a transition metal, the source of the transition metal is listed with the metal binding compound.

For a further assay, the system named is Sp2/0 cells. Briefly: Growth of Sp2/0 cells in transferrin-free CD Hybridoma medium with metal binding compounds. As to the method:
The ability of iron metal binding compounds to support cellular growth in the absence of transferrin was evaluated using Sp2/0 cells maintained in CD Hybridoma medium (Life Technologies, Rockville, Md.). Stock cultures containing 5 μg/mL human holo-transferrin were prepared in CD Hybridoma medium. For metal binding compound evaluation, Sp2/0 cells were established at an initial viable cell density of 0.5×10^5 cells/mL in stationary culture using 75 cm^2 tissue culture flasks in a final volume of 20 mL. All cultures were maintained at 37° C. in humidified air containing 8% CO2. To eliminate transferrin carry-over effects, cells were subcultured at the same seeding density at 4 day intervals for a total of three passages. Positive control cultures contained 5 μg/mL human holotransferrin while negative control cultures were established in the absence of either transferrin or metal binding compound. Metal binding compound stocks were prepared at 0.1M-0.2M in ddH2O and solubilized when necessary using 5N NaOH or HCl. Iron complexes were established using 0.2M metal binding compound and iron stocks mixed 1:1 (v/v) and incubated for 5-10 minutes at 22° C. All solutions containing metal binding compounds were filter sterilized using a 0.22 μm Millex-GV filter prior to addition to transferrin and serum-free media.
as §1
(§2) When added to the medium formulation un-complexed, the metal binding compound is listed alone, when added as a complex with a transition metal, the source of the transition metal is listed with the metal binding compound.

The next assay has as its system 293 cells. Briefly: Growth of 293 cells in transferrin-free 293 SFM with metal binding compounds. The method, then: Semi-confluent adherent cultures of 293 Cells (ATCC, CRL 1573) are readily adapted to suspension culture. The cells are first detached with a solution of Trypsin-EDTA (0.05% Trypsin, 0.53 mM Na4EDTA), and then resuspended in conventional medium supplemented with 10% FBS to inhibit the trypsin. The resuspended cells are centrifuged at 200×g for five minutes. The cell pellet is resuspended in 293 SFM (available from Life Technologies, Rockville, Md.) the formulation of which is described in WO 98/08934 which is specifically incorporated herein by reference. Alternatively, the cells may be detached with Versene (Na4EDTA, 0.53 mM) and resuspended in 293 SFM.
The initial seeding density of the 293 cells after conversion to suspension culture is 1×10^6 cells/mL. The cells are shaken on a rotary shaker at 150 rpm in a 37° C. incubator equilibrated with 8% CO2-92% air. When the cells reach a density of 1.5×10^6 cells/mL they are diluted with 293 SFM to a density of 3.0×10^5 cells/mL. Because 293 cells have a tendency to aggregate, the cells may be vortexed vigorously for approximately 45 seconds to obtain a predominantly single cell suspension at the time of passaging and counting. After several passages in suspension culture, the maximum achievable density may be determined.
The ability of metal binding compounds to support cellular growth was evaluated using 293 cells maintained in 293 SFM (Life Technologies, Rockville, Md.) without transferrin or metal binding compound. Stock cultures containing 5 μg/mL human holo-transferrin were prepared in 293 SFM. For metal binding compound evaluation, 293 cells were established in 125 mL shaker flasks at an initial viable seeding density of 2×10^5 cells/mL in a final volume of 20 mL. All cultures were maintained at 37° C. in humidified air containing 8% CO2. To eliminate transferrin carry-over effects, cells were subcultured at 4 day intervals for a total of three passages. At each subculturing, cells were seeded at a density of 2×10^5 cells/mL. Positive control cultures contained 5 μg/mL human holo-transferrin while negative control cultures were established in the absence of either transferrin or metal binding compound. Metal binding compound stocks were prepared at 0.1M-0.2M in ddH2O and solubilized when necessary using 5N NaOH or HCl. Iron complexes were established using 0.2M metal binding compound and iron stocks mixed 1:1 (v/v) and incubated for 5-10 minutes at 22° C. All solutions containing metal binding compounds were filter sterilized using a 0.22 μm Millex-GV filter prior to addition to transferrin and serum-free media.
In most cases, metal binding compounds were evaluated either alone or in combination with ferric chloride or ferrous sulfate at 25 μM, 50 μM and 100 μM. When used in combination, the metal binding compounds were used in equimolar concentration with iron ions. Values in the table represent the mean percentage of control growth for duplicate cultures determined at the third passage.
as §2

`O=c1cc(CO)occ1O.[Cl][Fe]([Cl])[Cl]` [Kojic Acid · Ferric Chloride]: the “mean percentage of control growth” value worked out at 89% in the assay with CHO cells (25 μM); 88% with CHO cells (50 μM); 85% in the assay with CHO cells (100 μM); 0% in the assay on Sp2/0 cells (25 μM); 0% in the assay with Sp2/0 cells (50 μM); 0% in the assay on Sp2/0 cells (100 μM).
On to `OC[C@@H](O)[C@@H](O)[C@H](O)[C@@H](O)CO.[Cl][Fe]([Cl])[Cl]` [Sorbitol · Ferric Chloride], for which the “mean percentage of control growth” value in the assay on CHO cells (25 μM) is 100%; in the assay on CHO cells (50 μM), 107%; with CHO cells (100 μM) it was 112%; with Sp2/0 cells (25 μM), 94%; with Sp2/0 cells (50 μM) it was 55%; with Sp2/0 cells (100 μM), 60%.
As for `NCCCCC(N)C(=O)O.[Cl][Fe]([Cl])[Cl]` (stereo not drawn) [Lysine · Ferric Chloride], the “mean percentage of control growth” value in the assay on CHO cells (25 μM) is 51%; in the assay on CHO cells (50 μM) it was 79%; in the assay with CHO cells (100 μM) it was 98%.
Take `O=C(O)c1ccccn1.[Cl][Fe]([Cl])[Cl]` [2-Pyridinecarboxylic Acid · Ferric Chloride]: the “mean percentage of control growth” value in the assay with CHO cells (25 μM) came out at 88%; in the assay on CHO cells (50 μM), 89%; in the assay with CHO cells (100 μM), 100%; with Sp2/0 cells (25 μM), 0%; with Sp2/0 cells (50 μM) it was 30%; in the assay with Sp2/0 cells (100 μM), 48%.
Regarding `CCc1occc(=O)c1O` [2-Ethyl-3-Hydroxy-4-Pyrone], the “mean percentage of control growth” value with CHO cells (25 μM) is given as 9%; in the assay on CHO cells (50 μM), 60%; in the assay on CHO cells (100 μM), 113%; in the assay on 293 cells (25 μM) it was 59%; with 293 cells (50 μM), 120%; with 293 cells (100 μM) it was 126%. In addition, the “mean percentage of control growth” value in the assay on Sp2/0 cells (25 μM) is listed as 0%; with Sp2/0 cells (50 μM), 75%; in the assay with Sp2/0 cells (100 μM), 116%.
For `O=C(O)c1cccc(O)c1O.[Cl][Fe]([Cl])[Cl]` [2,3-Dihydrobenzoic Acid · Ferric Chloride], the “mean percentage of control growth” value was 71% in the assay with CHO cells (25 μM), 0% in the assay with CHO cells (50 μM) and 0% with CHO cells (100 μM).
Turning to `O=S(=O)([O-])[O-].[Fe+2]` [Ferrous Sulfate, reference compound], the “mean percentage of control growth” value is 88% in the assay on CHO cells (25 μM); 79% in the assay with CHO cells (50 μM); 38% in the assay with CHO cells (100 μM); 71% in the assay on 293 cells (25 μM); 60% in the assay with 293 cells (50 μM); 41% with 293 cells (100 μM). Also, the “mean percentage of control growth” value stood at 91% with Sp2/0 cells (25 μM), 103% in the assay with Sp2/0 cells (50 μM) and 94% with Sp2/0 cells (100 μM).
On to `O=C(O)c1ccc[n+]([O-])c1.[Cl][Fe]([Cl])[Cl]` [Nicotinic Acid-N-Oxide · Ferric Chloride], for which the “mean percentage of control growth” value turned out to be 60% in the assay on CHO cells (25 μM); 84% in the assay on CHO cells (50 μM); 105% in the assay with CHO cells (100 μM); 104% in the assay with 293 cells (25 μM); 80% with 293 cells (50 μM); 79% in the assay with 293 cells (100 μM).
Regarding “Ferrous Gluconate · Ascorbic Acid Phosphate”, the “mean percentage of control growth” value in the assay with CHO cells (25 μM) turned out to be 91%; in the assay with CHO cells (50 μM), 61%; in the assay with CHO cells (100 μM), 28%; in the assay on 293 cells (25 μM), 86%; with 293 cells (50 μM), 109%; in the assay on 293 cells (100 μM), 101%. The “mean percentage of control growth” value in the assay with Sp2/0 cells (25 μM) came to 92%; in the assay with Sp2/0 cells (50 μM) it was 94%; in the assay on Sp2/0 cells (100 μM), 93%.
In the case of `NC(CS)C(=O)O.O=S(=O)([O-])[O-].[Fe+2]` (stereo not drawn) [Cysteine · Ferrous Sulfate], the “mean percentage of control growth” value in the assay with CHO cells (25 μM) is on record as 83%; with CHO cells (50 μM), 64%; in the assay with CHO cells (100 μM), 45%; with Sp2/0 cells (25 μM), 85? %; in the assay with Sp2/0 cells (50 μM), 79%; with Sp2/0 cells (100 μM), 67%.
As for `NC(CC(=O)O)C(=O)O.[Cl][Fe]([Cl])[Cl]` (stereo not drawn) [Aspartic Acid · Ferric Chloride], the “mean percentage of control growth” value was found to be 77% in the assay on CHO cells (25 μM); 89% with CHO cells (50 μM); 112% in the assay on CHO cells (100 μM); 81% with 293 cells (25 μM); 86% with 293 cells (50 μM); 100% with 293 cells (100 μM).
In the case of `O=c1cc(CO)occ1O` [Kojic Acid], the “mean percentage of control growth” value in the assay with CHO cells (25 μM), in the assay with CHO cells (50 μM), in the assay on CHO cells (100 μM), with Sp2/0 cells (25 μM), in the assay with Sp2/0 cells (50 μM) and with Sp2/0 cells (100 μM) was 0% in each case.
Take `[Cl][Fe]([Cl])[Cl].c1ccc(Nc2ccccn2)nc1` [2,2-Dipyridylamine · Ferric Chloride]: the “mean percentage of control growth” value amounted to 40% with CHO cells (25 μM); 48% in the assay with CHO cells (50 μM); 65% in the assay with CHO cells (100 μM); 118% in the assay on 293 cells (25 μM); 96% in the assay with 293 cells (50 μM); 101% in the assay on 293 cells (100 μM).
